Laboratory results taken from patent publication US8153631B2, “Triazole compounds and uses related thereto” (Amgen Inc., priority 2003, dated 2012).

What follows are compounds tested against T1, human HSD1 (recombinant HSD1) (Homo sapiens, UniProt P28845) (assay: In vitro HSD1 activity inhibitory action, SPA of cortisone to cortisol conversion). Details: recombinant human HSD1 0.1 μg/ml, 500 μM NADPH, 16 nM 3H cortisone, room temperature 90 min, read-out: hHSD1 IC50.
T1 construct: made in house
Format: biochemical
Protocol: In Vitro HSD1 (Hydroxysteroid Dehydrogenase 1) Activity Inhibitory Action
The HSD1 inhibitory activity was examined by quantitative determination by an SPA (scintillation proximity assay) system of the suppressive action on the conversion from cortisone to cortisol using human HSD1 (hereinafter recombinant HSD1) expressed using a baculo-virus system as an enzyme source. For the reaction, a reagent was added to a 96 well plate (96 well Opti-plates™-96 (Packard)) to the following final concentration and a volume of 100 μl was reacted at room temperature for 90 min. The reaction solution used was 0.1 μg/ml recombinant HSD1, 500 μM NADPH, 16 nM ^3H cortisone (Amersham Biosciences, 1.78 Tbq/mol) dissolved in 0.1% BSA (Sigma)-containing PBS and the test drug was 2 μl of a compound solution (dissolved in DMSO). After 90 min, the reaction was stopped by adding PBS (40 μl, containing 0.1% BSA (Sigma)) containing 0.08 μg of anti-cortisol mouse monoclonal antibody (East Coast Biologics), 365 μg SPA PVT mouse antibody-binding beads (Amersham Biosciences) and 175 μM carbenoxolone (Sigma) to the reaction solution. After the completion of the reaction, the plate was incubated overnight at room temperature and the radioactivity was measured by Topcount (Packard). For control, the value (0% inhibition) of the well containing 2 μl of DMSO instead of the test drug was used, and for positive control, the value (100% inhibition) of the well containing carbenoxolone instead of the test drug at the final concentration of 50 μM was used. The inhibition (%) of the test drug was calculated by ((value of control−value of test drug)/(value of control−value of positive control))×100 (%). The IC50 value was analyzed using a computer-based curve fitting soft.

T1 sequence (P28845 whole entry): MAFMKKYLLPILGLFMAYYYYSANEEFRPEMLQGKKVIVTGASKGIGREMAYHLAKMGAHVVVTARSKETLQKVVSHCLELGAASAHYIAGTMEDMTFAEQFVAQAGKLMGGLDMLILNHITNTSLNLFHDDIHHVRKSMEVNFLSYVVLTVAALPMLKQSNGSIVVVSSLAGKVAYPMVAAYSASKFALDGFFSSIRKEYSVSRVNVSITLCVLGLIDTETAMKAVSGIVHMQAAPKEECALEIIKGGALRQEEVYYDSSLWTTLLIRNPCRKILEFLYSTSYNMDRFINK

Row | SMILES | IC50 [nM]
1 | Cn1c(N2CCOCC2)nnc1C1(c2ccccc2)CC1 [Ex. 2-20] | < 10
2 | Cn1c(N2CCSCC2)nnc1C1(c2ccccc2)CC1 [Ex. 2-21] | < 10
3 | Cn1c(N2CCS(=O)(=O)CC2)nnc1C1(c2ccccc2)CC1 [Ex. 2-22] | 10 to 1000
4 | Cn1c(N2CC[S+]([O-])CC2)nnc1C1(c2ccccc2)CC1 [Ex. 2-23] | 10 to 1000
5 | Cn1c(N2CCc3ccccc3C2)nnc1C1(c2ccccc2)CC1 [Ex. 2-24] | < 10
6 | Cn1c(N2CCCc3ccccc32)nnc1C1(c2ccccc2)CC1 [Ex. 2-25] | < 10
7 | Cn1c(N2CCNCC2)nnc1C1(c2ccccc2)CC1 [Ex. 2-26] | 10 to 1000
8 | CC(=O)N1CCN(c2nnc(C3(c4ccccc4)CC3)n2C)CC1 [Ex. 2-27] | 10 to 1000
9 | Cn1c(N2CCC(Oc3ncc(Cl)cc3Cl)CC2)nnc1C1(c2ccc(Cl)cc2)CC1 [Ex. 2-29] | 10 to 1000
10 | Cn1c(N2CCC(Oc3ccccc3Cl)CC2)nnc1C1(c2ccccc2)CC1 [Ex. 2-30] | < 10
11 | Cn1c(N2CCC(Oc3ncc(Cl)cc3Cl)CC2)nnc1C1(c2ccc(F)cc2)CC1 [Ex. 2-31] | < 10
12 | Cn1c(N2CCC(O)CC2)nnc1C1(c2ccccc2)CC1 [Ex. 2-32] | < 10
13 | Cn1c(N2CCC(Nc3ncc(Cl)cc3Cl)CC2)nnc1C1(c2ccccc2)CC1 [Ex. 2-33] | 10 to 1000
14 | Cn1c(N2CCC(Cc3ccccc3)CC2)nnc1C1(c2ccccc2)CC1 [Ex. 2-34] | 10 to 1000
15 | Cn1c(N2CCC(Oc3ccc(Cl)cc3)CC2)nnc1C1(c2ccccc2)CC1 [Ex. 2-35] | < 10
16 | Cn1c(N2CCC(Oc3ccc(F)cc3Cl)CC2)nnc1C1(c2ccccc2)CC1 [Ex. 2-36] | < 10
17 | Cn1c(N2CCC(Oc3ncc(C(F)(F)F)cc3Cl)CC2)nnc1C1(c2ccccc2)CC1 [Ex. 2-37] | 10 to 1000
18 | Cn1c(N2CCC(Oc3ncccc3Cl)CC2)nnc1C1(c2ccccc2)CC1 [Ex. 2-38] | < 10
19 | Cn1c(N2CCC(Oc3ccc(Cl)cn3)CC2)nnc1C1(c2ccccc2)CC1 [Ex. 2-39] | < 10
20 | Cn1c(N2CCC(O)(c3ccccc3)CC2)nnc1C1(c2ccccc2)CC1 [Ex. 2-40] | 10 to 1000
21 | CN(c1ncc(Cl)cc1Cl)C1CCN(c2nnc(C3(c4ccccc4)CC3)n2C)CC1 [Ex. 2-41] | 10 to 1000
22 | COC1(c2ccccc2)CCN(c2nnc(C3(c4ccccc4)CC3)n2C)CC1 [Ex. 2-42] | 10 to 1000
23 | COC1CCN(c2nnc(C3(c4ccccc4)CC3)n2C)CC1 [Ex. 2-43] | 10 to 1000
24 | Cn1c(N2CCC(Oc3ccc(C(=O)O)cc3)CC2)nnc1C1(c2ccccc2)CC1 [Ex. 2-44] | 10 to 1000
25 | Cn1c(N2CCC(Oc3cccc(C(=O)O)c3)CC2)nnc1C1(c2ccccc2)CC1 [Ex. 2-45] | 10 to 1000

Row | SMILES | IC50 [nM]
26 | Cn1c(N2CCC(Oc3ccccc3C(=O)O)CC2)nnc1C1(c2ccccc2)CC1 [Ex. 2-46] | 10 to 1000
27 | COC(=O)c1ccc(OC2CCN(c3nnc(C4(c5ccccc5)CC4)n3C)CC2)cc1 [Ex. 2-47] | 10 to 1000
28 | Cn1c(N2CCC(=O)CC2)nnc1C1(c2ccccc2)CC1 [Ex. 2-48] | < 10
29 | COC(=O)c1cccc(OC2CCN(c3nnc(C4(c5ccccc5)CC4)n3C)CC2)c1 [Ex. 2-49] | < 10
30 | COC(=O)c1ccccc1OC1CCN(c2nnc(C3(c4ccccc4)CC3)n2C)CC1 [Ex. 2-50] | 10 to 1000
31 | Cn1c(N2CCC(Oc3ccc(F)cc3)CC2)nnc1C1(c2ccccc2)CC1 [Ex. 2-51] | < 10
32 | Cn1c(N2CCC(Oc3ccc(C#N)cc3)CC2)nnc1C1(c2ccccc2)CC1 [Ex. 2-52] | < 10
33 | CC1CCN(c2nnc(C3(c4ccccc4)CC3)n2C)CC1 [Ex. 2-53] | < 10
34 | Cn1c(N2CCC(Oc3cccc(CO)c3)CC2)nnc1C1(c2ccccc2)CC1 [Ex. 2-54] | 10 to 1000
35 | Cn1c(N2CCC(Oc3cccc(C(N)=O)c3)CC2)nnc1C1(c2ccccc2)CC1 [Ex. 2-55] | 10 to 1000
36 | CNC(=O)c1cccc(OC2CCN(c3nnc(C4(c5ccccc5)CC4)n3C)CC2)c1 [Ex. 2-56] | 10 to 1000
37 | CN(C)C(=O)c1cccc(OC2CCN(c3nnc(C4(c5ccccc5)CC4)n3C)CC2)c1 [Ex. 2-57] | 10 to 1000
38 | Cn1c(N2CCC(C)(C)CC2)nnc1C1(c2ccccc2)CC1 [Ex. 2-58] | < 10
39 | Cn1c(N2CCC(C)(O)CC2)nnc1C1(c2ccccc2)CC1 [Ex. 2-59] | < 10
40 | Cn1c(N2CCC(C)(C)CC2)nnc1C1(c2ccc(F)cc2)CC1 [Ex. 2-60] | < 10
41 | Cn1c(N2CCC(CCO)CC2)nnc1C1(c2ccccc2)CC1 [Ex. 2-61] | < 10
42 | COC(=O)c1cc(OC2CCN(c3nnc(C4(c5ccccc5)CC4)n3C)CC2)ccc1Cl [Ex. 2-62] | 10 to 1000
43 | Cn1c(N2CCC(Oc3ccc(Cl)c(CO)c3)CC2)nnc1C1(c2ccccc2)CC1 [Ex. 2-63] | 10 to 1000
44 | Cn1c(N2CCC(Oc3ccc(Cl)c(C(=O)O)c3)CC2)nnc1C1(c2ccccc2)CC1 [Ex. 2-64] | 10 to 1000
45 | CC(C)C1CCN(c2nnc(C3(c4ccccc4)CC3)n2C)CC1 [Ex. 2-65] | < 10
46 | Cn1c(N2CCC(Oc3ccc(Cl)c(C(N)=O)c3)CC2)nnc1C1(c2ccccc2)CC1 [Ex. 2-66] | 10 to 1000
47 | COC(=O)C1(C)CCN(c2nnc(C3(c4ccccc4)CC3)n2C)CC1 [Ex. 2-67] | < 10
48 | Cn1c(N2CCC(C)(CO)CC2)nnc1C1(c2ccccc2)CC1 [Ex. 2-68] | < 10
49 | Cn1c(N2CCC(C)(C(=O)O)CC2)nnc1C1(c2ccccc2)CC1 [Ex. 2-69] | 10 to 1000
50 | Cn1c(N2CCC(C)(C(N)=O)CC2)nnc1C1(c2ccccc2)CC1 [Ex. 2-70] | < 10

Row | SMILES | IC50 [nM]
51 | CCCn1c(N2CCC(Oc3ncc(Cl)cc3Cl)CC2)nnc1C1(c2ccccc2)CC1 [Ex. 2-71] | 10 to 1000
52 | COCCn1c(N2CCC(Oc3ncc(Cl)cc3Cl)CC2)nnc1C1(c2ccccc2)CC1 [Ex. 2-72] | 10 to 1000
53 | Cn1c(N2CCC(Oc3ccc(Cl)cc3Cl)CC2)nnc1C1(c2ccccc2)CC1 [Ex. 2-73] | < 10
54 | C=CCn1c(N2CCC(Oc3ncc(Cl)cc3Cl)CC2)nnc1C1(c2ccccc2)CC1 [Ex. 2-75] | < 10
55 | Clc1cnc(OC2CCN(c3nnc(C4(c5ccccc5)CC4)n3CC3CC3)CC2)c(Cl)c1 [Ex. 2-76] | < 10
56 | CC(C)Cn1c(N2CCC(Oc3ncc(Cl)cc3Cl)CC2)nnc1C1(c2ccccc2)CC1 [Ex. 2-77] | 10 to 1000
57 | Clc1cnc(OC2CCN(c3nnc(C4(c5ccccc5)CC4)n3C3CC3)CC2)c(Cl)c1 [Ex. 2-78] | < 10
58 | CCn1c(N2CCC(Oc3ncc(Cl)cc3Cl)CC2)nnc1C1(c2ccccc2)CC1 [Ex. 2-79] | < 10
59 | CC(C)n1c(N2CCC(Oc3ncc(Cl)cc3Cl)CC2)nnc1C1(c2ccccc2)CC1 [Ex. 2-80] | < 10
60 | Cn1c(N2CCC(Oc3ncc(Cl)cc3Cl)CC2)nnc1C1(c2ccccc2)CCCC1 [Ex. 2-81] | < 10
61 | Cc1ccc(C2(c3nnc(N4CCC(Oc5ncc(Cl)cc5Cl)CC4)n3C)CC2)cc1 [Ex. 2-82] | 10 to 1000
62 | COc1ccc(C2(c3nnc(N4CCC(Oc5ncc(Cl)cc5Cl)CC4)n3C)CC2)cc1 [Ex. 2-83] | 10 to 1000
63 | Cn1c(N2CCN(Cc3ccc(Cl)cc3Cl)CC2)nnc1C1(c2ccccc2)CC1 [Ex. 2-84] | 10 to 1000
64 | Cn1c(N2CCN(c3ccccc3Cl)CC2)nnc1C1(c2ccccc2)CC1 [Ex. 2-85] | < 10
65 | Cn1c(N2CCC(Oc3c(Cl)cncc3Cl)CC2)nnc1C1(c2ccccc2)CC1 [Ex. 2-86] | 10 to 1000
66 | Cn1c(N2CCC(Oc3ncc(Cl)cc3Cl)CC2)nnc1C1(c2ccc(Cl)cc2Cl)CC1 [Ex. 2-88] | 10 to 1000
67 | Cn1c(N2CCN(c3ccc(F)cc3)CC2)nnc1C1(c2ccccc2)CC1 [Ex. 2-89] | 10 to 1000
68 | Cn1c(N2CCN(c3ccc(Cl)cc3)CC2)nnc1C1(c2ccccc2)CC1 [Ex. 2-90] | 10 to 1000
69 | Cn1c(N2Cc3ccccc3C2)nnc1C1(c2ccccc2)CC1 [Ex. 2-91] | < 10
70 | CCN(Cc1ccccc1)c1nnc(C2(c3ccccc3)CC2)n1C [Ex. 2-92] | < 10
71 | CN(c1ccccc1)c1nnc(C2(c3ccccc3)CC2)n1C [Ex. 2-93] | < 10
72 | CN(c1ccc(Cl)cc1)c1nnc(C2(c3ccccc3)CC2)n1C [Ex. 2-94] | < 10
73 | CN(c1ccccn1)c1nnc(C2(c3ccccc3)CC2)n1C [Ex. 2-95] | < 10
74 | CN(c1ccccc1)c1nnc(C2(c3ccc(F)cc3)CC2)n1C [Ex. 2-96] | < 10
